US10561681B2, “Antimetastatic 2H-selenopheno[3,2-h]chromenes, synthesis thereof, and methods of using same agents” (Latvian Institute of Organic Synthesis, priority 2016, dated 2020)
Marks after values point to notes of the source that are not given here.

Legend:
[1] = tested on: HepG2 (human hepatocellular carcinoma); assay: In vitro cytotoxicity, MTT test; format: cell-based; details: HepG2, MTT, 72 h, read-out: Cytotoxicity IC50, HepG2
Procedure, shortened: (§1)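 Cells seeded at about 2-9·10^4 cells/mL immediately after compound addition, exposed 72 h at 37 °C, 5% CO2. Survival then measured by MTT (2 mg/mL in HBSS, 3 h) in fresh medium with 10 mM HEPES; formazan dissolved in DMSO and read at 540 nm against untreated controls.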

[2] = tested on: SH-SY5Y (human neuroblastoma); assay: In vitro cytotoxicity, MTT test; format: cell-based; details: Homo sapiens, SH-SY5Y, 72 h, MTT, read-out: Cytotoxicity IC50, SHSY5Y
Procedure, shortened: as §1

[3] = tested on: HT-1080 (human fibrosarcoma); assay: In vitro cytotoxicity, MTT test; format: cell-based; details: HT-1080, MTT, 72 h, read-out: Cytotoxicity IC50, HT-1080
Procedure, shortened: as §1

MG-22A (mouse hepatoma) = assay: In vitro cytotoxicity, MTT test; format: cell-based; details: MTT, 72 h, read-out: Cytotoxicity IC50, MG-22A
Procedure, shortened: as §1

CCL-8 (mouse sarcoma) = assay: In vitro cytotoxicity, MTT test; format: cell-based; details: MTT, 72 h, read-out: Cytotoxicity IC50, CCL-8
Procedure, shortened: as §1

[4] = tested on: MES-SA (human uterus sarcoma); assay: In vitro cytotoxicity, MTT test; format: cell-based; details: MTT, 72 h, read-out: Cytotoxicity IC50, MES-SA
Procedure, shortened: as §1

[5] = tested on: MCF-7 (human breast adenocarcinoma, estrogen-positive); assay: In vitro cytotoxicity, MTT test; format: cell-based; details: MCF7, MTT, 72 h, read-out: Cytotoxicity IC50, MCF-7
Procedure, shortened: as §1

[6] = tested on: MDA-MB-435s (human melanoma); assay: In vitro cytotoxicity, MTT test; format: cell-based; details: MTT, 72 h, read-out: Cytotoxicity IC50, MDA-MB-435s
Procedure, shortened: as §1

[7] = tested on: A549 (human lung carcinoma); assay: In vitro cytotoxicity, MTT test; format: cell-based; details: Homo sapiens, A549, 72 h, MTT, 72 h; read-out: Cytotoxicity IC50, A549
Procedure, shortened: as §1

[8] = tested on: mouse sarcoma CCRF-S180 II (CCL-8); assay: Mouse non-metastatic cancer model, sarcoma CCL-8 s.c. in ICR mice; format: in vivo; details: s.c. Day 1, 2, 3, 4, 7, 8, 9, 10, 11; dose 5 mg/kg, total dose 45 mg/kg
Description: Six-week-old female ICR and BALB/c mice were purchased from the University of Tartu Laboratory Animal Centre (Estonia). The mice were housed five to a cage, and under standard conditions (21-23° C., 12 h light: dark cycle), fed ad libitum (R3 diet, Lactamin AB, Kimstad, Sweden) and observed daily. The experimental procedures involving experimental animals were carried out in accordance with the guidelines of the European Community, local laws and policies, and were approved by the Latvian Animal Protection Ethical Committee, the Food and Veterinary Service, Riga, Latvia.
In vivo studies were performed utilizing the mouse sarcoma CCRF-S180 II (CCL-8) and Lewis lung carcinoma (LLC) cell line. All cell lines were purchased from ATCC. The cells were grown in Dulbecco's modified Eagle's medium (Sigma) supplemented with 10% fetal calf serum (Sigma).
ICR mice were subcutaneously inoculated in the back with 5×10^6 CCL-8 cells and BALB/c mice were inoculated with 1×10^6 LLC (Lewis Lung Carcinoma) cells, which were suspended in 0.1 mL of PBS on day zero of the study. The compounds dissolved in DMSO and then in 0.1 mL water (DMSO final concentration 1%) were injected s.c. Mice in the untreated group were similarly given doses of 0.1 mL of water with DMSO. Tumor volume (tumor volume V=[…], a is maximal and b the minimal tumor diameter) was recorded twice per week. The mice were examined every other day for diseases including appearance, weight and behavior. The mice were sacrificed at day 16 of the experiment by decapitation after ketamine/xylazine anesthesia.

4T1 carcinoma cells = assay: 4T1 model of lung metastasis (tail vein) in Balb/c mice; format: in vivo, mouse; details: for % of the total area occupied by metastases, % (control = 100) / % of the total area occupied by metastases, Mean ± SD: 20 mg/kg, days 1, 4, 7, 9, 11, 14
Description: Compounds were administered s.c. at 1, 4, 7, 9, 11 and 14th days. 4T1 cells (10,000/0.1 ml PBS) were injected i.v. into syngeneic mice. The metastasis at day 16 are shown for each mouse, and averages are provided for illustration.
Balb/c mice were injected with 100,000 4T1 […] cancer cells into the tail vein and treatment started 24 hr later with subcutaneous (s.c.), intraperitoneal (i.p.) injections or oral administration (p.o.) of compounds according to the following scheme: 1, 4, 7, 9, 11 and 14th days in dose 20 or 40 mg/kg. Compounds were dissolved in DMSO and the solution were diluted by water (DMSO final concentration <1%). Mice in the control group were similarly given doses of 0.1 mL of water with DMSO. Twenty-one days later, all mice were anesthetized with ketamine/xylazine and euthanized, the mice were sacrificed spleens were excised from the mice and weighed. In each experiment, mice were weighed twice weekly.
(Lewis et al, Cancer Res, 2005, 65) Pulmonary metastases were enumerated by intra-tracheal injection of India ink (15% India Ink, 85% water, 3 drops NH4OH/100 ml). India ink injected lungs were washed in Feket's solution (300 ml 70% EtOH, 30 ml 37% formaldehyde, 5 ml glacial acetic acid) and then placed fresh Feket's solution overnight. […] White tumor nodules against a black lung background were measured.

B16-F10 melanoma cells = assay: Melanoma model of lung metastasis in C57BL/6 mice; format: in vivo, mouse; details: total dose 140 mg/kg; for Inhibition of melanoma metastasis in lung: s.c. Day 1, 7, 8, 9, 10, 11, 14, 20 mg/kg, day 21; for Animals (group of six) without melanoma metastasis: s.c.
Description: B16-F10 cells (10,000/0.1 ml PBS) were injected i.v. into syngeneic mice. The number of macroscopic lung metastases was determined 21 days later.
C57BL/6 mice were injected with 100,000 B16-F10 melanoma cells into the mice via the tail vein and treatment started 24 hr later with subcutaneous injections (s.c.) of compounds administered according to the following scheme: 1, 7, 8, 9, 10, 11 and 14th days in dose 20 mg/kg. Mice in the control group were similarly given doses of 0.1 mL of water with DMSO (DMSO final concentration <1%). Twenty-one days later, all mice were anesthetized with ketamine/xylazine and euthanized, the mice were sacrificed and the black melanoma nodules on the lungs were measured. In each experiment, mice were weighed twice weekly.

SMILES | IC50 [1] [µM] | IC50 [2] [µM] | IC50 [3] [µM] | IC50 (MG-22A (mouse hepatoma)) [µM] | IC50 (CCL-8 (mouse sarcoma)) [µM] | IC50 [4] [µM] | IC50 [5] [µM] | IC50 [6] [µM] | IC50 [7] [µM] | Anticancer activity in vivo (inhibition, %), CCL-8 tumor volume [8] | % of the total area occupied by metastases, % (control = 100) (4T1 carcinoma cells; i.p.) [%] | % of the total area occupied by metastases, Mean ± SD (4T1 carcinoma cells; i.p.) [%] | % of the total area occupied by metastases, % (control = 100) (4T1 carcinoma cells; p.o.) | % of the total area occupied by metastases, Mean ± SD (4T1 carcinoma cells; p.o.) [%] | % of the total area occupied by metastases, % (control = 100) (4T1 carcinoma cells; s.c.) | % of the total area occupied by metastases, Mean ± SD (4T1 carcinoma cells; s.c., control 50 ± 33) [%] | Inhibition of melanoma metastasis in lung (B16-F10 melanoma cells) [%] | Animals (group of six) without melanoma metastasis (B16-F10 melanoma cells) | further results
COC(=O)c1cc2ccc3c(Br)c(CN4CCN(C)CC4)[se]c3c2oc1=O [Compound I-10, Methyl 7-bromo-8-((4-methylpiperazin-1-yl)methyl)-2-oxo-2H-selenopheno[3,2-h]chromene-3-carboxylate] | 187 ± 10 | > 117 | 170 ± 9 | 64 ± 5 | 94 ± 7 | > 187 | 150 ± 9 | > 187 | 187 ± 10 | 42** % | 86 | 43 ± 40 | 32** % | 16 ± 18 | 19* % | 10 ± 29 | 74 | five | Effect on development of splenomegaly (4T1 carcinoma cells; 4T1 i.v.): does not affect the development of splenomegaly; Spleen weight increase (4T1 carcinoma cells; 4T1 i.v., dose not stated, control with tumor +147%): 63%
O=C(O)c1cc2ccc3c(Br)c(C4(O)CCCCC4)[se]c3c2oc1=O [Compound I-11, 7-Bromo-8-(1-hydroxycyclohexyl)-2-oxo-2H-selenopheno[3,2-h]chromene-3-carboxylic acid] | > 213 | > 117 | 77 ± 5 | > 122 | 149 ± 9 | 206 ± 10 | 213 ± 6 | 208 ± 13 | > 213 | 58* % | 62 | 31 ± 41 | 28** % | 14 ± 31 | 39** % | 20 ± 30 | 96 | four | Prevention of formation of 4T1 carcinoma lung metastasis (4T1 carcinoma cells; five mice per group): 98%
